Reference: ChEMBL document CHEMBL1140704, “Further structure-activity relationships study of hybrid 7-{[2-(4-phenylpiperazin-1-yl)ethyl]propylamino}-5,6,7,8-tetrahydronaphthalen-2-ol analogues: identification of a high-affinity D3-preferring agonist with potent in vivo activity with long duration of action” (J Med Chem, 2008)
Calls of active or inactive are those of the source. The rule behind the calls is not given here.

Columns and labels:
[1] = target: T1, D(2) dopamine receptor (Homo sapiens, UniProt P14416); assay: biochemical
T1 sequence (P14416 whole entry): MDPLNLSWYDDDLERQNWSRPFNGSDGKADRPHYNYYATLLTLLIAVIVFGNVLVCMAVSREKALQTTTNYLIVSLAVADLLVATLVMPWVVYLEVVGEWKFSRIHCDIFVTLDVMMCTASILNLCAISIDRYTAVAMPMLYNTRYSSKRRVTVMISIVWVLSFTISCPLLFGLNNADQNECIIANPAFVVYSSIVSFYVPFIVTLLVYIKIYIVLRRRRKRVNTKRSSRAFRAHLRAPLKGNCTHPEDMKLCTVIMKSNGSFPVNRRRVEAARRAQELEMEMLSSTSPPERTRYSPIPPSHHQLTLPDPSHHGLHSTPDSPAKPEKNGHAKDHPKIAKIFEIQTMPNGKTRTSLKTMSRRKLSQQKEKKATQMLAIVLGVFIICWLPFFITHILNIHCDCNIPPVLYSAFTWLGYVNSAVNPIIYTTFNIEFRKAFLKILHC
Description: Displacement of [3H]spiperone from human cloned dopamine D2L receptor expressed in HEK293 cells

[2] = target: T2, D(3) dopamine receptor (Homo sapiens, UniProt P35462); assay: biochemical
T2 sequence (P35462 whole entry): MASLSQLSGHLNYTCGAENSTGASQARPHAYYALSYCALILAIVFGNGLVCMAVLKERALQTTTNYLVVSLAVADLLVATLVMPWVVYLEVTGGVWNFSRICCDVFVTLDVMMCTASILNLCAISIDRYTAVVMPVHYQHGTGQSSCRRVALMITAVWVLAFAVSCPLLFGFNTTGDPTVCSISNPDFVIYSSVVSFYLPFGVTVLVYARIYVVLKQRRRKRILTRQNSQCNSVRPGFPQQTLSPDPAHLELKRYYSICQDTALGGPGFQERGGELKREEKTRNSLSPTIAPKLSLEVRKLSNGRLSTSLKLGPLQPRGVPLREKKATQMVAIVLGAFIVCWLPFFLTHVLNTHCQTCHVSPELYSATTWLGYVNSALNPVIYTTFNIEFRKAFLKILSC
Description: Displacement of [3H]spiperone from human cloned dopamine D3 receptor expressed in HEK293 cells

[3] = species: Homo sapiens; assay: Selectivity for human D3 receptor over human D2L receptor
[4] = target: T1, D(2) dopamine receptor; assay: Agonist activity at human cloned dopamine D2L receptor expressed in CHO cells assessed as stimulation of [35S]GTPgammaS binding; type: functional, cell-based
[5] = tested on: Rattus norvegicus; assay: Effect on rotational activity in 6-OH-DA-Lesioned rat assessed as number of rotations at 2.51 mg/kg, ip; type: functional, organism-based; parameters: dose 2.51 mg/kg
[6] = target: T2, D(3) dopamine receptor
Description: Agonist activity at human cloned dopamine D3 receptor expressed in AtT-20 cells assessed as stimulation of [35S]GTP-gamma-S binding

[7] = tested on: Rattus norvegicus; assay: Effect on rotational activity in 6-OH-DA-Lesioned rat assessed as number of rotations at 2.87 mg/kg, ip after 12 hrs; type: functional; conditions: route intraperitoneal
[8] = tested on: Rattus norvegicus; assay: Effect on rotational activity in 6-OH-DA-Lesioned rat assessed as number of rotations at 0.53 mg/kg, ip after 9 hrs; type: functional; conditions: route intraperitoneal

CCCN(CCN1CCN(c2ccccc2)CC1)C1CCc2ccc(N)cc2C1 (stereo not given)
Ki [1]: 638 nM | Ki [2]: 22.2 nM

CCCN(CCN1CCN(c2ccccc2)CC1)C1CCc2cc(O)c(O)cc2C1 (stereo not given)
Ratio Ki [3]: 50.6 | Ki [1]: 70.3 nM | Ki [2]: 1.39 nM

CCCN(CCN1CCN(c2ccccc2)CC1)C1CCc2ccc(O)cc2C1 (stereo not given)
Ratio EC50 [3]: 17.6 | Ratio Ki [3]: 91 | EC50 [4]: 12.2 nM | Activity [5]: Active | EC50 [6]: 0.69 nM | Ki [1]: 142 nM | Ki [2]: 1.56 nM

CCCN(CCCCN1CCN(c2ccccc2)CC1)C1CCc2ccc(O)cc2C1 (stereo in doubt; (-)-13) [listing 1 of 2 here]
Ki [1]: 19.4 nM | Ki [2]: 1.22 nM

CCCN(CCN1CCN(c2ccccc2OC)CC1)C1CCc2c(O)cccc2C1 (racemic) [listing 1 of 2 here]
Ki [1]: 35.8 nM | Ki [2]: 2.8 nM

CCCN(CCN1CCN(c2ccccc2OC)CC1)C1CCc2c(O)cccc2C1 (single isomer, unassigned; (+)) [listing 1 of 2 here]
Ratio Ki [3]: 4.72

CCCN(CCN1CCN(c2cccc(Cl)c2Cl)CC1)C1CCc2c(O)cccc2C1 (racemic)
Ratio Ki [3]: 32.2 | Ki [1]: 14.6 nM | Ki [2]: 0.45 nM

CCCN(CCCN1CCN(c2ccccc2)CC1)C1CCc2ccc(O)cc2C1 (stereo not given)
Ratio Ki [3]: 16.2 | Ki [1]: 167 nM | Ki [2]: 10.3 nM

CCCN(CCCCN1CCN(c2ccccc2)CC1)C1CCc2ccc(O)cc2C1 (stereo in doubt; (+)-13) [listing 1 of 2 here]
Ratio Ki [3]: 25.8

CCCN(CCCCN1CCN(c2ccccc2)CC1)C1CCc2cc(O)c(O)cc2C1 (stereo not given)
Ratio Ki [3]: 7.51 | Ki [1]: 21.7 nM | Ki [2]: 2.89 nM

CCCN(CCCCN1CCN(c2ccccc2)CC1)C1CCc2ccc(O)cc2C1 (stereo in doubt; (+)-13) [listing 2 of 2 here]
Ki [1]: 19.3 nM | Ki [2]: 0.74 nM

CCCN(CCN1CCN(c2ccccc2)CC1)C1CCc2cc(O)ccc2C1 (stereo not given)
Ratio Ki [3]: 57.9 | Ki [1]: 649 nM | Ki [2]: 11.2 nM

CCCN(CCN1CCN(c2ccccc2OC)CC1)C1CCc2c(O)cccc2C1 (racemic) [listing 2 of 2 here]
Ratio Ki [3]: 12.8

CCCN(CCN1CCN(c2ccccc2OC)CC1)C1CCc2c(O)cccc2C1 (single isomer, unassigned; (+)) [listing 2 of 2 here]
Ki [1]: 88.7 nM | Ki [2]: 18.8 nM

CCCN(CCN1CCN(c2ccccc2OC)CC1)C1CCc2c(O)cccc2C1 (single isomer, unassigned; (-)) [listing 1 of 2 here]
EC50 [4]: 1.56 nM | EC50 [6]: 0.08 nM | Ki [1]: 9.56 nM | Ki [2]: 0.46 nM

CCCN(CCN1CCN(c2ccccc2)CC1)C1CCc2c(O)cccc2C1 (stereo in doubt; (-)-25)
Activity [7]: 4319 | Activity [8]: 3609

CCCN(CCN1CCN(c2ccccc2)CC1)C1CCc2ccc3c(c2C1)CC(=O)N3 (stereo not given)
Ratio Ki [3]: 8.27 | Ki [1]: 90.6 nM | Ki [2]: 10.9 nM

CCCN(CCN1CCN(c2ccccc2OC)CC1)C1CCc2c(O)cccc2C1 (single isomer, unassigned; (-)) [listing 2 of 2 here]
Ratio EC50 [3]: 19.4 | Ratio Ki [3]: 20.9

CCCN(CCCCN1CCN(c2ccccc2)CC1)C1CCc2ccc(O)cc2C1 (stereo in doubt; (-)-13) [listing 2 of 2 here]
Ratio Ki [3]: 15.9

Oc1ccc2c(c1)CC(N(CCc1cccs1)CCN1CCN(c3ccccc3)CC1)CC2 (stereo not given)
Ratio Ki [3]: 1.03 | Ki [1]: 24.6 nM | Ki [2]: 23.9 nM
